Where a SMILES comes first, the peptide text is derived from it. Bridges are numbered along the chain shown (N, C = ends).
Tested on: alpha-1 type I collagen (COL1A1) mRNA in primary murine skin fibroblasts
Assay: COL1A1 mRNA quantification by RT-PCR
Format: cell-based, mouse
Settings: P12-3A 100 μM, 4 d, confluent monolayers
Protocol: FIG. 4A-F. Effects of P12-3A on cultured skin cells. A, Insulin concentrations as a function of time in logarithmically growing primary murine skin fibroblasts in the absence or presence of P12-3A (100 μM). […] Data are mean±SEM of 4 independent replications. *P<0.05, **P<0.01. B, Proliferation of cells in the absence or presence of P12-3A (100 μM). […] C,D,E, P12-3A (100 μM) potentiates insulin-induced collagen production in skin fibroblasts. Collagen production was assessed by COL1A1 mRNA levels (C), levels of hydroxyproline secreted into the medium (D), and cell-associated mature alpha-1 type I collagen levels detected by Western blotting (E). […] Migration of HaCaT cells 48 h after induction of a scratch wound in the presence of the indicated quantities of insulin and/or P12-3A (100 μM). […]
Insulin promotes wound healing and overall skin health by affecting a number of processes, including cell proliferation (2,3), cell migration (5,6), and the production and secretion of ECM components, particularly type I collagen (7-13). We therefore assessed the ability of P12-3A to influence these processes in cultured skin fibroblasts and keratinocytes. To that end, primary mouse skin fibroblasts were grown for 4 d in multiple concentrations of insulin in the presence or absence of P12-3A, and insulin concentration over time was monitored by ELISA. […]

In the case of `CC(C)C[C@H](NC(=O)[C@H](CO)NC(=O)[C@@H](N)CCC(N)=O)C(=O)N1CCC[C@H]1C(=O)N[C@@H](Cc1c[nH]c2ccccc12)C(=O)N[C@H]1CSSC[C@@H](C(=O)N[C@H](C(=O)N[C@H](C(N)=O)[C@@H](C)O)C(C)C)NC(=O)[C@H](Cc2c[nH]cn2)NC(=O)[C@@H]2CCCN2C(=O)[C@H](Cc2ccc(O)cc2)NC1=O` [Peptide P12-3A] (H-QSLPWCYPHCVT-NH2; disulfide 6-10 (inferred)), the “COL1A1 mRNA levels” value was ~2.6 times the levels of untreated cells.
